Source: patent publication US8148391B2 (Cephalon, Inc., priority 2006, dated 2012)
Where two headings read alike, the source gives them in different places. Each block holds one compound with its values, some of them ahead of it.

What was measured:
[1] = target: T1, baculovirus-expressed ALK (Homo sapiens, UniProt Q9UM73); assay: ALK Kinase Assay (ELISA-type, time-resolved fluorescence); type: biochemical
T1 construct: host or cells: baculovirus expression system
How it was run: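 Wells were coated with phospholipase C-γ at 10 μg/mL in Tris-buffered saline. Adding 30 ng/ml enzyme started the reaction, which ran at 37° C for 15 minutes before Eu-N1 PT66 antibody detection. Percent inhibition versus log10 concentration gave IC50 by variable-slope fit.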

[2] = target: T2, c-Met (cytoplasmic domain) (Homo sapiens, UniProt P08581); assay: c-Met Kinase Assay (same methods as for ALK, with modifications); type: biochemical
T2 construct: 10 ng/mL c-Met (cytoplasmic domain, Invitrogen Corporation #PV3143); purchased Invitrogen Corporation PV3143
How it was run: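 IC50 values were fitted by variable-slope sigmoidal regression of percent inhibition against log compound concentration. Phosphorylation was read with Eu-N1 PT66 antibody after a 15 min, 37 °C reaction. The reaction was initiated with 10 ng/mL c-Met cytoplasmic domain on wells coated with 10 μg/mL PLC-γ in TBS.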

[3] = ALK kinase inhibition, 1 μM ATP, read-out: ALK Activity
[4] = c-Met kinase inhibition, 1 μM ATP, read-out: cMet Activity
[5] = ALK kinase inhibition, 1 μM ATP (Km level), read-out: ALK Activity
[6] = c-Met kinase inhibition, 1 μM ATP (Km level), read-out: cMet Activity
[7] = 1 μM ATP (Km level), read-out: ALK Activity (ALK Kinase Inhibition, IC50)
[8] = 1 μM ATP (Km level), read-out: cMet Activity (c-Met Kinase Inhibition, IC50)
[9] = 1 μM ATP (Km level), 30 ng/ml ALK, 37° C., 15 minutes, read-out: ALK Activity (ALK kinase inhibition, IC50 class)
[10] = 1 μM ATP (Km level), 10 ng/mL c-Met, read-out: cMet Activity (c-Met kinase inhibition, IC50 class)

T1 sequence (Q9UM73 19-1620): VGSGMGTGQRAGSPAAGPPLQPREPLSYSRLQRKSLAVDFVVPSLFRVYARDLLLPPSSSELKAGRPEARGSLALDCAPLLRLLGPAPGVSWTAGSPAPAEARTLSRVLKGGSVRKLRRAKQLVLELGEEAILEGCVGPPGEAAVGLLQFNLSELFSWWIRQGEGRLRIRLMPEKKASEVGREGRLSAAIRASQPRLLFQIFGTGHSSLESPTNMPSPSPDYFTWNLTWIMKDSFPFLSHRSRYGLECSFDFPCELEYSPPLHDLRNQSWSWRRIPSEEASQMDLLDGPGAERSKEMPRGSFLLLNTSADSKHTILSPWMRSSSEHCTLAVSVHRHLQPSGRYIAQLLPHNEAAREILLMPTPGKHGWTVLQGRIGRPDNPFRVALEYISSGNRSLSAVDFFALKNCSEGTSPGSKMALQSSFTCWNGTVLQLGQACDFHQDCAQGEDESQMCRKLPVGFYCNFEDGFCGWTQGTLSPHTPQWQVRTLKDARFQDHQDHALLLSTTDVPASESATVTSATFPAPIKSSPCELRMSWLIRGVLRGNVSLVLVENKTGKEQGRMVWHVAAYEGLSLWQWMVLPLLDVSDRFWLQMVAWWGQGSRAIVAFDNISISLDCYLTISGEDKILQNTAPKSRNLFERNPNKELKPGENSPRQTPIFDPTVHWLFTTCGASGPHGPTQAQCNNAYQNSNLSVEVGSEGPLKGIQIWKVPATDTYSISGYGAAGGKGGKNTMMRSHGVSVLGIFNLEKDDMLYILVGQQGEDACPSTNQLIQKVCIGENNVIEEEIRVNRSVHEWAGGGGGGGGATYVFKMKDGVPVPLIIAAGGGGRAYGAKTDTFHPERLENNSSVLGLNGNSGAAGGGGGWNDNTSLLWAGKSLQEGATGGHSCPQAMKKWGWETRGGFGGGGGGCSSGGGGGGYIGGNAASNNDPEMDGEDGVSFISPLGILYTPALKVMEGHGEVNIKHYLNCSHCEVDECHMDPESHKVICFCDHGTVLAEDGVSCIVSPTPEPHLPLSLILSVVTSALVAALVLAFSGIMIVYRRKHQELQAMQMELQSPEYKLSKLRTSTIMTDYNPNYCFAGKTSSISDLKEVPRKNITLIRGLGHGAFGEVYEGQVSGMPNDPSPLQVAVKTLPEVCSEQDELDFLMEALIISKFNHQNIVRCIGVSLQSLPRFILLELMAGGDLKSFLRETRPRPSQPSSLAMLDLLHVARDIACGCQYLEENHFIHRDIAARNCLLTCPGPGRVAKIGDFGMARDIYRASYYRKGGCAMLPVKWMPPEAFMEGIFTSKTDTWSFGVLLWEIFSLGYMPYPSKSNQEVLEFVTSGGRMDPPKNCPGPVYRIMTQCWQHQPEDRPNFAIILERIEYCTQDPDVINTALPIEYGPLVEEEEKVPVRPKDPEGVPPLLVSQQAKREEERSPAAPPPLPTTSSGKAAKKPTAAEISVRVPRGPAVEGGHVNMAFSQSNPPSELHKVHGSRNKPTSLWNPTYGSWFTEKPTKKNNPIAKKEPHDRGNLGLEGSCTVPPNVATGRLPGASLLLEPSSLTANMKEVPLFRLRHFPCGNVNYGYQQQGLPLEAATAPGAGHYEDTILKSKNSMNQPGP
T2 sequence (P08581 956-1390 limits assumed): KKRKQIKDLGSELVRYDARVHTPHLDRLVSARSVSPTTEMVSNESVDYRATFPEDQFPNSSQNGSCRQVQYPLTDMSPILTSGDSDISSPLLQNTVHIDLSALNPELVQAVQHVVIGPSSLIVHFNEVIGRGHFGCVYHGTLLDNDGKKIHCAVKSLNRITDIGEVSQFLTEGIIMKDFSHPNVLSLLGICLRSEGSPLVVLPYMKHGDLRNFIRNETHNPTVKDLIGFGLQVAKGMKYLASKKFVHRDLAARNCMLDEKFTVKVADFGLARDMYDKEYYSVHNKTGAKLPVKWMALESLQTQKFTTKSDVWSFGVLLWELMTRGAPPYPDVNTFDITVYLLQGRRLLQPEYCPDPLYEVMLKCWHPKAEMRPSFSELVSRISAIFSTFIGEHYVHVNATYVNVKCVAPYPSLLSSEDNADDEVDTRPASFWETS

SMILES: C#CCNC(=O)c1sccc1Nc1nc(Nc2ccc3c(c2)CCOC(=O)N3C)ncc1Cl [Example 1760, 3-[5-Chloro-2-(5-methyl-6-oxo-5,6,8,9-tetrahydro-7-oxa-5-aza-benzocyclohepten-2-ylamino)-pyrimidin-4-ylamino]-thiophene-2-carboxylic acid prop-2-ynylamide]
IC50 [1, 3]: 100 to 1000 nM
IC50 [2, 4]: < 100 nM

SMILES: CNC(=O)c1ccccc1Nc1nc(Nc2ccc3c(c2)N(C)CCNC3)ncc1Cl [Example 417, 2-[5-Chloro-2-(1-methyl-2,3,4,5-tetrahydro-1H-benzo[e][1,4]diazepin-8-ylamino)-pyrimidin-4-ylamino]-N-methylbenzamide]
IC50 [1, 5]: < 100 nM
IC50 [2, 6]: < 100 nM

SMILES: Cn1cnc2c(Nc3nc(Nc4ccc5c(c4)C(C)(C)CCC(=O)N5)ncc3Cl)cccc21 [Example 1005, 7-[5-Chloro-4-(1-methyl-1H-benzoimidazol-4-ylamino)-pyrimidin-2-ylamino]-5,5-dimethyl-1,3,4,5-tetrahydro-benzo[b]azepin-2-one]
IC50 [1, 7]: < 100 nM
IC50 [2, 8]: 100 to 1000 nM

SMILES: CNC(=O)c1ccccc1Nc1nc(Nc2ccc3c(c2)CCC(F)(F)CC3)ncc1Cl [Example 180, 2-[5-Chloro-2-(7,7-difluoro-6,7,8,9-tetrahydro-5H-benzocyclohepten-2-ylamino)-pyrimidin-4-ylamino]-N-methyl-benzamide]
IC50 [1, 5]: < 100 nM
IC50 [2, 6]: 100 to 1000 nM

SMILES: COCCNC1CCc2cc(Nc3ncc(Cl)c(Nc4c(OC)ccc5c4CN(S(C)(=O)=O)CC(=O)N5)n3)c(OC)cc2CC1 (centres unmarked) [Example 750, 6-{5-Chloro-2-[3-methoxy-7-(2-methoxy-ethylamino)-6,7,8,9-tetrahydro-5H-benzocyclohepten-2-ylamino]-pyrimidin-4-ylamino}-4-methanesulfonyl-7-methoxy-1,3,4,5-tetrahydro-benzo[e][1,4]diazepin-2-one]
IC50 [1, 7]: 1000 to 10000 nM
IC50 [2, 8]: > 10000 nM

SMILES: CCN1C(=O)CCCc2c1ccc(Nc1ncc(Cl)c(Nc3ccc(OC)cc3C(=O)NC)n1)c2OC [Example 607, 2-[5-Chloro-2-(1-ethyl-6-methoxy-2-oxo-2,3,4,5-tetrahydro-1H-benzo[b]azepin-7-ylamino)-pyrimidin-4-ylamino]-5-methoxy-N-methyl-benzamide]
IC50 [1, 7]: < 100 nM
IC50 [2, 8]: 1000 to 10000 nM

SMILES: COCCN1CCc2ccc(Nc3ncc(Cl)c(N[C@H]4CC[C@H](N(CC#N)S(C)(=O)=O)CC4)n3)cc2CC1 [Example 1385, trans-N-(4-{5-Chloro-2-[3-(2-methoxy-ethyl)-2,3,4,5-tetrahydro-1H-benzo[d]azepin-7-ylamino]-pyrimidin-4-ylamino}-cyclohexyl)-N-cyanomethyl-methanesulfonamide]
IC50 [1, 9]: 100 to 1000 nM
IC50 [2, 10]: 1000 to 10000 nM

SMILES: CN(C)S(=O)(=O)c1ccccc1Nc1nc(Nc2ccc3c(c2)CCN(C(=O)C2COCCO2)CC3)ncc1Cl (centres unmarked) [Example 638, 2-{5-Chloro-2-[3-([1,4]dioxane-2-carbonyl)-2,3,4,5-tetrahydro-1H-benzo[d]azepin-7-ylamino]-pyrimidin-4-ylamino}-N,N-dimethyl-benzenesulfonamide]
IC50 [1, 7]: < 100 nM
IC50 [2, 8]: < 100 nM

SMILES: CNC(=O)c1cccc(F)c1Nc1nc(Nc2ccc3c(c2)NC(=O)CN(C(C)=O)C3)ncc1Cl [Example 1848, 2-[2-(4-Acetyl-2-oxo-2,3,4,5-tetrahydro-1H-benzo[e][1,4]diazepin-8-ylamino)-5-chloro-pyrimidin-4-ylamino]-3-fluoro-N-methyl-benzamide]
IC50 [1, 3]: 100 to 1000 nM
IC50 [2, 4]: 100 to 1000 nM

SMILES: NC(=O)C1C2C=CC(C2)C1Nc1nc(Nc2ccc3c(c2)CNC(=O)CC3)ncc1Cl (stereo not drawn) [Example 1797, 3-exo-[5-Chloro-2-(3-oxo-2,3,4,5-tetrahydro-1H-benzo[c]azepin-8-ylamino)-pyrimidin-4-yl]aminobicyclo[2.2.1]hept-5-ene-2-exo-carboxamide]
IC50 [1, 3]: < 100 nM
IC50 [2, 4]: 100 to 1000 nM

SMILES: CN([C@@H]1CCCC[C@H]1Nc1nc(Nc2ccc3c(c2)C(C)(C)CCC(=O)N3)ncc1Cl)S(C)(=O)=O [Example 1674, N-{(1R,2R)-2-[5-Chloro-2-(5,5-dimethyl-2-oxo-2,3,4,5-tetrahydro-1H-benzo[b]azepin-7-ylamino)-pyrimidin-4-ylamino]-cyclohexyl}-N-methyl-methanesulfonamide]
IC50 [1, 3]: < 100 nM
IC50 [2, 4]: 1000 to 10000 nM

SMILES: CNC(=O)c1ccccc1Nc1nc(Nc2ccc3c(c2)CNC(=O)CCN3)ncc1Cl [Example 1302, 2-[5-Chloro-2-(4-oxo-1,2,3,4,5,6-hexahydro-benzo[b][1,5]diazocin-8-ylamino)-pyrimidin-4-ylamino]-N-methyl-benzamide]
IC50 [1, 9]: < 100 nM
IC50 [2, 10]: < 100 nM

Continued, values first:

IC50 [1, 5]: < 100 nM
IC50 [2, 6]: < 100 nM
SMILES: CCNC(=O)c1ccccc1Nc1nc(Nc2ccc3c(c2)CCN(CCOC)CC3)ncc1Cl [Example 343, 2-{5-Chloro-2-[3-(2-methoxy-ethyl)-2,3,4,5-tetrahydro-1H-benzo[d]azepin-7-ylamino]-pyrimidin-4-ylamino}-N-ethyl-benzamide]

IC50 [1, 7]: < 100 nM
IC50 [2, 8]: > 10000 nM
SMILES: COc1cc2c(cc1Nc1ncc(Cl)c(Nc3ccc(N4CCN(C)CC4)c(C)c3)n1)CCN(CC(F)F)CC2 [Example 765, 5-Chloro-N*2*-[3-(2,2-difluoro-ethyl)-8-methoxy-2,3,4,5-tetrahydro-1H-benzo[d]azepin-7-yl]-N*4*-[3-methyl-4-(4-methyl-piperazin-1-yl)-phenyl]-pyrimidine-2,4-diamine]

IC50 [1, 5]: < 100 nM
IC50 [2, 6]: 1000 to 10000 nM
SMILES: C#CCN1CCc2ccc(Nc3ncc(Cl)c(Nc4ccc(N5CCOCC5)cc4OC)n3)cc2CC1 [Example 324, 5-Chloro-N*4*-(2-methoxy-4-morpholin-4-yl-phenyl)-N*2*-(3-prop-2-ynyl-2,3,4,5-tetrahydro-1H-benzo[d]azepin-7-yl)-pyrimidine-2,4-diamine]

IC50 [1, 9]: < 100 nM
IC50 [2, 10]: > 10000 nM
SMILES: COCCOc1ccc(Nc2nc(Nc3cc4c(cc3OC)CCN(Cc3ncco3)CC4)ncc2Cl)c(OC)c1 [Example 1174, 5-Chloro-N*4*-[2-methoxy-4-(2-methoxy-ethoxy)-phenyl]-N*2*-(8-methoxy-3-oxazol-2-ylmethyl-2,3,4,5-tetrahydro-1H-benzo[d]azepin-7-yl)-pyrimidine-2,4-diamine]

IC50 [1, 7]: < 100 nM
IC50 [2, 8]: > 10000 nM
SMILES: CCN1CCN(CC)c2cc(Nc3ncc(Cl)c(Nc4ccc5c(c4)N(CC)CCN(CC)C5)n3)ccc2C1 [Example 721, 5-Chloro-N*2*,N*4*-bis(1,4-diethyl-2,3,4,5-tetrahydro-1H-benzo[e][1,4]diazepin-8-yl)-pyrimidin-2,4-diamine]

IC50 [1, 5]: < 100 nM
IC50 [2, 6]: > 10000 nM
SMILES: CCN1CCc2cc(Nc3ncc(Cl)c(Nc4ccc(N5CCOCC5)cc4OC)n3)c(OC)cc2CC1=O [Example 254, 7-[5-Chloro-4-(2-methoxy-4-morpholin-4-yl-phenylamino)-pyrimidin-2-ylamino]-3-ethyl-8-methoxy-1,3,4,5-tetrahydro-benzo[d]azepin-2-one]

IC50 [1, 9]: 1000 to 10000 nM
IC50 [2, 10]: 1000 to 10000 nM
SMILES: O=C1CCCc2ccc(Nc3ncc(Cl)c(Nc4c(F)cc(F)cc4N4CCOCC4)n3)cc2N1 [Example 1286, 8-[5-Chloro-4-(2,4-difluoro-6-morpholin-4-yl-phenylamino)-pyrimidin-2-ylamino]-1,3,4,5-tetrahydro-1-benzazepin-2-one]
